Results from patent US10080779B2, “Method for increasing the expression of anti-microbial peptides by keratinocytes comprising administering a composition comprising IL-17, TNF-alpha and OSM” (Universite D'Angers, priority 2004, dated 2018).

Legend:
NHEK [1] = assay: cDNA macroarrays analysis of 36 cytokines on 154 genes in NHEK; type: cell-based, human; conditions: 10 ng/ml, 24 h
Method: The comparison of the effects of 36 different cytokines on the expression of 154 genes of potential interest for skin physiology was performed using home-made cDNA macroarrays analysis. After cytokine stimulation, total RNA was extracted using TRIzoI® Reagent (Invitrogen life Technologies) and conventional 33P-cDNA target synthesis and hybridization were performed (Boniface et al, 2007). Genes were considered regulated if expression levels differed more than 3-fold relative to untreated control and 3-fold relative to mean background noise.

NHEK [2] = assay: Cytokine measurement by ELISA in NHEK culture supernatants; type: cell-based, human; conditions: 96 h; for Redundancy with the family member it replaces in M5 (BD2 and CXCL8 production): IL-1β for IL-1α, TNFβ for TNFα, IL-17F for IL-17A, IL-24 for IL-22, IL-6 for OSM
Method: (§1) NHEK were obtained as previously described, from surgical samples of healthy breast skin (Boniface et al, 2005). NHEK were cultured to 80% of confluence and then starved for 24 h in Keratinocyte SFM without addition of growth factors before stimulation. Cells were stimulated with or without 10 ng/ml of recombinant IL-17A, OSM, TNFα, IL-22 and IL-1α alone or in combination (R&D systems Europe, Lille, France) during 24 h for mRNA quantification or 48 h to 96 h for protein quantification.
Levels of BD2, BD3 and CXCL8 were determined using Human ELISA development kit (Peprotech), and CXCL1 and CXCL5 with DuoSet reagents (R&D Systems Europe).

RHE [3] = assay: RHE histology and immunohistochemistry (Example 14); type: cell-based, human; conditions: 72 h; for CK10, LOR and FLG expression (immunohistology) / IVL expression (immunohistology) / S100A7 expression (immunohistology): RHE; for CK10, LOR and FLG expression (immunohistology) / IVL expression (immunohistology) / S100A7 expression (immunohistology) / RHE histology: single cytokines
Method: (§2) Normal human epidermal keratinocytes (NHEK) were obtained as previously described, from surgical samples of healthy breast skin (Boniface et al, 2005). NHEK were cultured to 80% of confluence allowing the expression of a large panel of keratinocyte differentiation markers, and then starved for 24 h in Keratinocyte SFM containing 0.03 mM Ca^2+ (Invitrogen Life Technologies, Cergy Pontoise, France) before stimulation. Confluent differentiated cells were stimulated with or without recombinant IL-17A, OSM, TNFα, IL-22 and IL-1α alone at maximum effective concentrations (reported previously around 10 ng/ml (Boniface et al, 2005 and Boniface et al, 2007)) or in combination (R&D systems Europe, Lille, France) during 2 h to 72 h for mRNA quantification. RHE were generated on polycarbonate culture inserts, from surgical samples of paediatric foreskins as previously described (Guenou et al., 2009). RHE were stimulated with or without recombinant IL-17A, OSM, TNFα, IL-22 and IL-1α alone or in combination, with or without a Janus protein Tyrosine Kinases (JAKs) inhibitor 10 μM (Calbiochem, 420099), during 24 h for mRNA quantification or during 72 h for immunohistological analysis.
RHE were washed and fixed with formaldehyde solution. Fixed tissues were dehydrated with increasing ethanol concentrations, embedded in paraffin and sections were carried out using a microtome (4 μm thickness). The sections were deparaffinised, washed and incubated with hydrogen peroxide. The sections were incubated with anti-CK10 (SantaCruz, SC-23877), anti-LOR (Eurogentec, PRB-145P), anti-FLG (SantaCruz, SC-66192), anti-IVL (Biomedical Technologies, BT-601), anti-S100A7 (Clinisciences, IMG-409A) and then detected using a biotin-conjugated secondary antibody (Vector, RTU vectastain universal quick kit, PK-7800). After peroxidase-conjugated streptavidine (Vector, RTU vectastain universal quick kit, PK-7800) and peroxidase substrate addition (Dako, Substrat hyper-sensible AEC+), nuclei were counter-stained using a solution of hematoxylin. Sections were observed using a NIKON E400 microscope. The images were captured using a NIKON DS-Ril and processed with NIS-Elements 3.10 software.

[4] = tested on: normal human keratinocytes (NHEK); assay: Cytokine cocktails on S100A7, hBD2/4, KRT10 mRNA in NHEK (RT-Q-PCR); type: cell-based; conditions: NHEK 24 hrs, 1 ng/ml each
Method: Quantitative real time PCR was carried out using the LightCycler-FastStart DNA Master^PLUS SYBR Green I kit (Roche, Mannheim, Germany). The reaction components were 1× FastStart DNA Master^PLUS SYBR Green I and 0.5 μM of forward and reverse primers for S100A7 (forward 5′-[…]-3′ (SEQ ID No: 9) and reverse 5′-[…]-3′ (SEQ ID No: 10)), S100A8 (Pattyn, Speleman et al. 2003), S100A9 (forward 5′-[…]-3′ (SEQ ID No: 11) and reverse 5′-[…]-3′ (SEQ ID No: 12)), hBD2/4 (forward 5′-[…]-3′ (SEQ ID No: 13) and reverse 5′-[…]-3′ (SEQ ID No: 14)), KRT10 (forward 5′-[…]-3′ (SEQ ID No: 15) and reverse 5′-[…]-3′ (SEQ ID No: 16)), and hydroxymethyl-bilane synthase (HMBS) as a housekeeping gene (Vandesompele, De Preter et al. 2002). After cDNA fluorescent quantification using propidium iodide, 250 ng, 25 ng and 2.5 ng of cDNA were added as PCR template in the LightCycler glass capillaries. The cycling conditions comprised a 10 min polymerase activation at 95° C. and 50 cycles at 95° C. for 10 s, 64° C. for 5 s and 72° C. for 18 s with a single fluorescence measurement. […] A mathematical model was used to determine the relative quantification of target genes compared to HMBS reference gene (Pfaffl 2001).
To that aim, confluent normal human keratinocytes (NHEK) were treated for 24 hrs with the indicated mix of cytokines (each cytokine at 1 ng/ml final concentration). Total RNA was extracted, reverse-transcribed and the expression of the selected genes was analyzed by real-time PCR as described.

NHEK [5] = assay: RT-QPCR of antimicrobial peptide and chemokine genes in NHEK; type: cell-based, human; conditions: 10 ng/ml, 24 h
Method: as §1
NHEK and skin total RNA were isolated and reverse-transcribed as previously described (Boniface et al, 2005). Quantitative real time PCR was carried using the LightCycler-FastStart DNA Master SYBR® Green I kit on LightCycler 480 (Roche Diagnostics, Meylan, France). The reaction components were 1×DNA Master Mix, and 0.5 μM of HPLC purified sense and anti-sense oligonucleotides purchased from Eurogentec (Eurogentec France, Angers, France), designed using Primer3 software. Samples were normalized to three independent control housekeeping genes (G3PDH, RPL13A or ACTB for human samples and G3PDH, HMBS or B2m for mouse samples) and reported according to the ΔΔCT method as RNA fold increase: 2^ΔΔCT=2^ΔCT sample−ΔCT eference. For comparison of normal skin and psoriatic skin the REST 2008 software was used (Pfaffl et al., 2002).

NHEK [6] = assay: Keratinocyte differentiation marker (KDM) mRNA in NHEK (RT-PCR); type: cell-based, human; conditions: 24 h; for mRNA expression of CK1, DSG1, DSC1, FLG, CLSP, LOR and FABPS: single cytokines 10 ng/ml
Method: as §2
(§3) NHEK, RHE and murine skin total RNA were isolated using NucleoSpin® RNA II kit (Macherey-Nagel, Hoerdt, France) and reverse-transcribed with SuperScript® II Reverse Transcriptase (Invitrogen Life Technologies) according to the manufacturer's instructions. Quantitative real time PCR was carried out using the LightCycler-FastStart DNA Master SYBR® Green I kit on LightCycler 480 (Roche Diagnostics, Meylan, France). The reaction components were 1×DNA Master Mix, and 0.5 μM of HPLC purified sense and anti-sense oligonucleotides purchased from Eurogentec (Eurogentec France, Angers, France), designed using Primer3 software. The stability of the housekeeping gene expression has been assessed by using GeNorm algorithm. […] Thus samples were normalized to G3PDH housekeeping gene and reported according to the ΔΔCT method as RNA fold increase: 2^ΔΔCT=2^ΔCT sample−ΔCT reference.

RHE [7] = assay: KDM mRNA in reconstituted human epidermis (RT-PCR); type: cell-based; conditions: 24 h
Method: as §2, §3

With “IL-1β: cytokine of the same family as IL-1α” the “Number of genes (of 154) whose expression is modified with at least a three fold increase or decrease” value (NHEK [1]) was “at least five genes” and the “Redundancy with the family member it replaces in M5 (BD2 and CXCL8 production)” value (shortened to “Redundancy”) (NHEK [2]) was “total redundancy”.

With `CC(C)(C)c1nc2c3ccc(F)cc3c3c(=O)[nH]ccc3c2[nH]1` [JAKs inhibitor, reference compound] the “Effect on M5-induced RHE disruption and hyperplasia” value (RHE [3]; JAKs inhibitor 10 μM with M5 (3 ng/ml)) was “protects the integrity of the RHE and blocked the epidermal hyperplasia”.

For TNFα, the “Decrease of the activity of the 5 cytokines reference mix on omission of the cytokine, S100A7” value [4] was 3 fold, the “Decrease of the activity of the 5 cytokines reference mix on omission of the cytokine, hBD2/4” value [4] was 5.6 fold and the “Number of genes (of 154) whose expression is modified with at least a three fold increase or decrease” value (NHEK [1]) was “at least five genes”. For the same molecule, the “Contribution to M5 activity on BD2 and CXCL8 production (successive removal)” value (NHEK [2]) was “more critical to the activity of the M5 combination”, the “Number of the 21 chemokine and antimicrobial peptide genes upregulated” value (NHEK [5]) was 20 and the “Rank as contributor to keratinocyte differentiation inhibition (removal from M5)” value (NHEK [6]) was “most potent cytokines for keratinocyte differentiation inhibition”. For the same molecule, the “mRNA expression of CK1, DSG1, DSC1, FLG, CLSP, LOR and FABPS” value (NHEK [6]) was “downregulate mRNA expression”, the “CK10, LOR and FLG expression (immunohistology)” value (RHE [3]) was “did not exhibit any activity” and the “IVL expression (immunohistology)” value (RHE [3]) was “discreetly induced”. The “S100A7 expression (immunohistology)” value (RHE [3]) was “very slightly” and the RHE histology (RHE [3]) was “does not modify RHE histology”.

IL-22: recombinant cytokine IL-22 was tested, and the “Effect of depleting the cytokine from the mix on activity of the complete cocktail” value [4] was “did not significantly decrease the activity”, the “Number of genes (of 154) whose expression is modified with at least a three fold increase or decrease” value (NHEK [1]) was “at least five genes” and the BD3 production (NHEK [2]; 10 ng/ml) was “significant increase”. For the same molecule, the “CXCL1, CXCL5, CXCL8 production, single cytokines” value (NHEK [2]; 10 ng/ml) was “discrete effect”, the “Number of the 21 chemokine and antimicrobial peptide genes upregulated” value (NHEK [5]) was 14 and the “Number of KDM whose control mRNA expression is partially restored on removal of the cytokine from M5” value (NHEK [6]) was 4 KDM. The “mRNA expression of CK1, DSG1, DSC1, FLG, CLSP, LOR and FABPS” value (NHEK [6]) was “downregulate mRNA expression”, the “Expression of KDM mRNA (CK10, CK1, LOR, FLG)” value (RHE [7]) was “most active cytokines” and the “S100A7 mRNA expression” value (RHE [7]) was “strongly induced”. The “CK10, LOR and FLG expression (immunohistology)” value (RHE [3]) was “decreases expression of CK10, LOR and FLG”, the “IVL expression (immunohistology)” value (RHE [3]) was “strongly” and the “S100A7 expression (immunohistology)” value (RHE [3]) was “strongly induced”. For the same molecule, the RHE histology (RHE [3]) was “significant keratinocyte hyperplasia”.

For “IL-6: cytokine of the same family as OSM”, the “Number of genes (of 154) whose expression is modified with at least a three fold increase or decrease” value (NHEK [1]) was “at least five genes” and the “Redundancy” value (NHEK [2]) was “weak redundancy”.

B1: IL-17F: cytokine of the same family as IL-17A (protein, UniProt Q96PD4 31-163, looked up)
Interleukin-17F: RKIPKVGHTFFQKPESCPPVPGGSMKLDIGIINENQRVSMSRNIESRSTSPWNYTVTWDPNRYPSEVVQAQCRNLGCINAQGKEDISMNSVPIQQETLVVRRKHQGCSVSFQLEKVLVTVGCTCVTPVIHHVQ
With B1 the “Redundancy” value (NHEK [2]) was “limited redundancy”.

B2: TNFβ: cytokine of the same family as TNFα (protein, UniProt P01374 35-205, looked up)
Lymphotoxin-alpha: LPGVGLTPSAAQTARQHPKMHLAHSTLKPAAHLIGDPSKQNSLLWRANTDRAFLQDGFSLSNNSLLVPTSGIYFVYSQVVFSGKAYSPKATSSPLYLAHEVQLFSSQYPFHVPLLSSQKMVYPGLQEPWLHSMYHGAAFQLTQGDQLSTHTDGIPHLVLSPSTVFFGAFAL
For B2, the “Redundancy” value (NHEK [2]) was “strong redundancy”.

B3: INFγ: gamma Interferon (protein, UniProt P01579 24-161, looked up)
Interferon gamma: QDPYVKEAENLKKYFNAGHSDVADNGTLFLGILKNWKEESDRKIMQSQIVSFYFKLFKNFKDDQSIQKSVETIKEDMNVKFFNSNKKKRDDFEKLTNYSVTDLNVQRKAIHELIQVMAELSPAAKTGKRKRSQMLFRG
With B3 the “Effect of depleting the cytokine from the mix on activity of the complete cocktail” value [4] was “did not significantly decrease the activity”.

B4: IL-24: cytokine of the same family as IL-22 (protein, UniProt Q13007 52-206, looked up)
Interleukin-24: QEFHFGPCQVKGVVPQKLWEAFWAVKDTMQAQDNITSARLLQQEVLQNVSDAESCYLVHTLLEFYLKTVFKNYHNRTVEVRTLKSFSTLANNFVLIVSQLQPSQENEMFSIRDSAHRRFLLFRRAFKQLDVEAALTKALGEVDILLTWMQKFYKL
For B4, the “Number of genes (of 154) whose expression is modified with at least a three fold increase or decrease” value (NHEK [1]) was “at least five genes” and the “Redundancy” value (NHEK [2]) was “limited redundancy”.
